Reference: US20210147343A1 (priority 2018, published 2021)
Where two headings read alike, the source gives them in different places.

What was measured:
[1] = biological target: T1, mu opioid receptor (MOR) (Homo sapiens, UniProt P35372); assay: MOR GTPγS agonist assay; format: biochemical; design: host or cells: CHO-K1; details: membranes of CHO cells over-expressing MOR; SPA beads; read-out: MOR GTPγS EC50
Excerpt: Membranes obtained from the stable cell lines over-expressing MOR were subjected to GTPγS assay using SPA beads (Perkin Elmer, Cat #RPNQ0001).

[2] = biological target: T1, mu opioid receptor (MOR); assay: MOR cAMP antagonist assay; format: cell-based; design: host or cells: CHO-K1
Excerpt: MOR cAMP Antagonist Assay

[3] = biological target: T2, kappa opioid receptor (KOR) (Homo sapiens, UniProt P41145); assay: cell-based; details: after activation with dynorphin B
T2 construct: host or cells: CHO-K1
T2 sequence (P41145 whole entry): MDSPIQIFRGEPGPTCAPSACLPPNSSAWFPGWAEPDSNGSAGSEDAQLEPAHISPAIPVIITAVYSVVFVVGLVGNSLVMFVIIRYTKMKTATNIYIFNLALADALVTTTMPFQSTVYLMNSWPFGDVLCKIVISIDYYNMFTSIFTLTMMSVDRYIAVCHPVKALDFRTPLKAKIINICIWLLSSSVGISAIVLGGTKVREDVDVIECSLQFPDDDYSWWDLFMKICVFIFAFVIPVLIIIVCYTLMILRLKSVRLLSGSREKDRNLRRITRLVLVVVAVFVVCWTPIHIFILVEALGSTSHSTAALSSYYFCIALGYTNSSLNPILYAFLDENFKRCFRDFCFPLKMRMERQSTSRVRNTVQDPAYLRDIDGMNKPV
Excerpt: KOR cAMP Antagonist Assay

[4] = biological target: T1, mu opioid receptor (MOR); assay: MOR cAMP agonist assay
[5] = kOR cAMP IC50, CHO-K1 cells expressing kOR

T1 sequence (P35372 whole entry): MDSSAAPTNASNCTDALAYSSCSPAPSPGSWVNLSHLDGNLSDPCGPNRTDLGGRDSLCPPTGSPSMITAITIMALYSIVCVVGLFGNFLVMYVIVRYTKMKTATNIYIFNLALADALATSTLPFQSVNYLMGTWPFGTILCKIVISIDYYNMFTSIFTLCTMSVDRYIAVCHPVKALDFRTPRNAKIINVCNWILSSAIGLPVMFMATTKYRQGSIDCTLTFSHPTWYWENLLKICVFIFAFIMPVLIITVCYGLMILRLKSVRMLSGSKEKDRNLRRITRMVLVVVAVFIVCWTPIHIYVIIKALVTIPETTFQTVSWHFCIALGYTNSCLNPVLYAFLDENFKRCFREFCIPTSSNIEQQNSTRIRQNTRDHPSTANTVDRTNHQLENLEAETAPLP

Structure (SMILES) | EC50 [1] [nM] | IC50 [2] [nM] | IC50 [3, 5] [nM] | EC50 [4] [nM] | IC50 ([3]; CHO-K1 cells expressing kOR, read-out: kOR cAMP IC50) [nM]
Cc1ccc(C(=O)NC[C@H](Cc2c(C)cc(O)cc2C)N(C)C)cc1C [Compound C-28] | < 100 | < 100 |  |  | 
Cc1cc(O)cc(C)c1C[C@@H](CNC(=O)c1ccc(C(F)(F)F)cc1)N(C)C [Compound C-32, (S)—N-(2-(dimethylamino)-3-(4-hydroxy-2,6-dimethylphenyl)propyl)-4-(trifluoromethyl)benzamide] | < 100 | 100 to 1000 |  |  | 
Cc1cc(O)cc(C)c1C[C@@H](CNC(=O)c1cc2ccccc2cn1)N(C)C [Compound C-35] | < 100 | < 100 |  |  | 
O=C(NC[C@H](Cc1ccc2[nH]ncc2c1)N1CCCC1)c1ccc(Cl)c(Cl)c1 [Compound C-59, (S)—N-(3-(1H-indazol-5-yl)-2-(pyrrolidin-1-yl)propyl)-3,4-dichlorobenzamide] | 100 to 1000 | < 100 |  |  | 
CN1Cc2cc(O)ccc2C[C@H]1CNC(=O)c1ccc(Cl)c(Cl)c1 [Compound C-54] | < 100 | < 100 |  |  | 
CC(=O)Oc1cc(C)c(C[C@@H](CNC(=O)c2ccc(Cl)c(Cl)c2)N(C)C)c(C)c1 [Compound C-56, (S)-4-(3-(3,4-dichlorobenzamido)-2-(dimethylamino)propyl)-3,5-dimethylphenyl acetate] |  | < 100 |  |  | 
C[C@H](CC(=O)NC[C@H](Cc1ccc2c(c1)CC(=O)N2)N(C)C)c1ccccc1 [Compound A-22, (R)—N—((S)-2-(dimethylamino)-3-(2-oxoindolin-5-yl)propyl)-3-phenylbutanamide] | < 100 | < 100 |  |  | 
O=C(NC[C@@H]1Cc2ccc(O)cc2CN1)c1ccc(Cl)c(Cl)c1 [Compound C-60, (S)-3,4-dichloro-N-((7-hydroxy-1,2,3,4-tetrahydroisoquinolin-3-yl)methyl)benzamide] | < 100 | < 100 |  |  | 
Cc1cc(C(N)=O)cc(C)c1C[C@@H](CNC(=O)O[C@@H](C)c1ccccc1)N(C)C [Compound A-7, (S)-1-phenylethyl ((S)-3-(4-carbamoyl-2,6-dimethylphenyl)-2-(dimethylamino)propyl)carbamate] |  |  | 100 to 1000 | > 1000 | 
Cc1ccc(C(=O)NC[C@H](Cc2ccc(O)cc2Cl)N(C)C)cc1C [Compound C-2, (S)—N-(3-(2-Chloro-4-hydroxyphenyl)-2-(dimethylamino)propyl)-3,4-dimethylbenzenamide] |  | < 100 |  |  | 
Cc1cc(O)cc(C)c1C[C@@H](CNC(=O)c1nccc2ccccc12)N(C)C [Compound C-34] | < 100 | < 100 |  |  | 
Cc1cc(O)cc(C)c1C[C@@H](CNC(=O)c1ccc(Cl)c(C(F)(F)F)c1)N(C)C [Compound C-27] | < 100 | < 100 |  |  | 
CN(C)[C@H](CNC(=O)[C@@H]1C[C@@]1(C)c1ccccc1)Cc1ccc(O)cc1Cl [Compound B-1, (1R,2R)—N—((S)-3-(2-chloro-4-hydroxyphenyl)-2-(dimethylamino)propyl)-2-methyl-2-phenylcyclopropane-1-carboxamide] |  |  | < 100 | < 100 | 
CCN(CC)[C@H](CNC(=O)c1ccc(Cl)c(Cl)c1)Cc1ccc2[nH]ncc2c1 [Compound C-64] | < 100 | < 100 |  |  | 
Cc1cc(O)cc(C)c1C[C@@H](CNC(=O)c1ccc2occc2c1)N(C)C [Compound C-31] | < 100 | < 100 |  |  | 
CN(C)[C@H](CNC(=O)[C@@H]1C[C@H]1c1ccccc1)Cc1ccc(O)cc1 [Compound B-17, (1R,2R)—N—((S)-2-(dimethylamino)-3-(4-hydroxyphenyl)propyl)-2-phenylcyclopropane-1-carboxamide] |  |  | 100 to 1000 | < 100 | 
CN(C)[C@H](CNC(=O)[C@@H]1C[C@]1(C)c1ccccc1)Cc1ccc(C(N)=O)cc1 [Compound B-5, 4-((S)-2-(dimethylamino)-3-((1R,2S)-2-methyl-2-phenylcyclopropane-1-carboxamido)propyl)benzamide] |  |  | < 100 | < 100 | 
CN(C)[C@H](CNC(=O)c1cc(F)c(Cl)c(F)c1)Cc1ccc(O)cc1Cl [Compound C-1] |  | < 100 |  |  | 

Structure (SMILES) | EC50 [1] [nM] | IC50 [2] [nM] | IC50 [3, 5] [nM] | EC50 [4] [nM] | IC50 ([3]; CHO-K1 cells expressing kOR, read-out: kOR cAMP IC50) [nM]
CN(C)[C@H](CNC(=O)[C@@H]1C[C@@]1(C)c1ccccc1)Cc1ccc(O)cc1 [Compound B-62, (1R,2R)—N—((S)-2-(dimethylamino)-3-(4-hydroxyphenyl)propyl)-2-methyl-2-phenylcyclopropane-1-carboxamide] |  |  | 100 to 1000 | < 100 | 
Cc1cc(C(N)=O)cc(C)c1C[C@@H](CNC(=O)C[C@@H](C)c1ccccc1)N(C)C [Compound A-11, 4-((S)-2-(dimethylamino)-3-((R)-3-phenylbutanamido)propyl)-3,5-dimethylbenzamide] |  |  | 100 to 1000 | > 1000 | 
CN(C)[C@H](CNC(=O)[C@@H]1C[C@]1(C)c1ccccc1)Cc1ccc(C(N)=O)cc1Cl [Compound B-7, 3-chloro-4-((S)-2-(dimethylamino)-3-((1R,2S)-2-methyl-2-phenylcyclopropane-1-carboxamido)propyl)benzamide] |  |  | < 100 | < 100 | 
Cc1cc(O)cc(C)c1C[C@@H](CNC(=O)c1ccc2ccccc2c1)N(C)C [Compound C-33] | < 100 | < 100 |  |  | 
CN(C)[C@H](CNC(=O)[C@@H]1C[C@]1(C)c1ccccc1)Cc1ccc(O)cc1 [Compound B-12, (1R,2S)—N—((S)-2-(dimethylamino)-3-(4-hydroxyphenyl)propyl)-2-methyl-2-phenylcyclopropane-1-carboxamide] |  |  | < 100 | > 1000 | 
Cc1cc(C(N)=O)cc(C)c1C[C@@H](CNC(=O)[C@@H]1C[C@@]1(C)c1ccccc1)N(C)C [Compound B-8, 4-((S)-2-(dimethylamino)-3-((1R,2R)-2-methyl-2-phenylcyclopropane-1-carboxamido)propyl)-3,5-dimethylbenzamide] |  |  | 100 to 1000 | < 100 | 
Cc1cc(C(N)=O)cc(C)c1C[C@H](N)CNC(=O)O[C@@H](C)c1ccccc1 [Compound A-5, (S)-1-phenylethyl ((S)-2-amino-3-(4-carbamoyl-2,6-dimethylphenyl)propyl)carbamate] |  |  | < 100 | 100 to 1000 | 
CN(C)[C@H](CNC(=O)[C@@H]1CCCN1c1ccccc1)Cc1ccc(C(N)=O)cc1 [Compound B-10, (S)—N—((S)-3-(4-carbamoylphenyl)-2-(dimethylamino)propyl)-1-phenylpyrrolidine-2-carboxamide] |  |  | 100 to 1000 | 100 to 1000 | 
CN(C)[C@H](CNC(=O)c1ccc(Br)c(Cl)c1)Cc1ccc(O)cc1Cl [Compound C-8, (S)-4-bromo-3-chloro-N-(3-(2-chloro-4-hydroxyphenyl)-2-(dimethylamino)propyl)benzamide] |  | < 100 |  |  | 
Cc1cc(C(N)=O)cc(C)c1C[C@H](N)CNC(=O)N[C@H](c1ccccc1)C1CC1 [Compound A-6, 4-((S)-2-amino-3-(3-((S)-cyclopropyl(phenyl)methyl)ureido)propyl)-3,5-dimethylbenzamide] |  |  | 100 to 1000 | 100 to 1000 | 
CN(C)[C@H](CNC(=O)[C@@H]1C[C@@]1(C)c1ccccc1)Cc1ccc(C(N)=O)cc1 [Compound B-3, 4-((S)-2-(dimethylamino)-3-((1R,2R)-2-methyl-2-phenylcyclopropane-1-carboxamido)propyl)benzamide] |  |  | > 1000 | < 100 | 
CN(C)[C@H](CNC(=O)[C@H]1C[C@@]1(C)c1ccccc1)Cc1ccc(C(N)=O)cc1 [Compound B-4, 4-((S)-2-(dimethylamino)-3-((1S,2R)-2-methyl-2-phenylcyclopropane-1-carboxamido)propyl)benzamide] |  |  | 100 to 1000 | < 100 | 
CN(C)[C@H](CNC(=O)[C@@H]1C[C@@]1(C)c1ccccc1)Cc1ccc(C(N)=O)cc1Cl [Compound B-6, 3-chloro-4-((S)-2-(dimethylamino)-3-((1R,2R)-2-methyl-2-phenylcyclopropane-1-carboxamido)propyl)benzamide] |  |  | 100 to 1000 | < 100 | 
CN(C)[C@H](CNC(=O)[C@H]1CCCN1c1ccccc1)Cc1ccc(C(N)=O)cc1 [Compound B-9, (R)—N—((S)-3-(4-carbamoylphenyl)-2-(dimethylamino)propyl)-1-phenylpyrrolidine-2-carboxamide] |  |  | > 1000 | 100 to 1000 | 
Cc1cc(C[C@@H](CNC(=O)[C@@H]2C[C@]2(C)c2ccccc2)N(C)CC2CC2)ccc1O [Compound B-40, (1R,2S)—N—((S)-2-((cyclopropylmethyl)(methyl)amino)-3-(4-hydroxy-3-methylphenyl)propyl)-2-methyl-2-phenylcyclopropane-1-carboxamide] |  |  | > 1000 | < 100 | 
CN(C)[C@H](CNC(=O)c1ccc(Cl)c(Cl)c1)Cc1ccc(O)cc1Cl [Compound C-7, (S)-3,4-Dichloro-N-(3-(2-chloro-4-hydroxyphenyl)-2-(dimethylamino)propyl)benzamide] |  | < 100 |  |  | 
C[C@H](OC(=O)NC[C@@H](N)Cc1ccc(C(N)=O)cc1)c1ccccc1 [Compound A-2, (S)-1-phenylethyl ((S)-2-amino-3-(4-carbamoylphenyl)propyl)carbamate] |  |  |  | > 1000 | > 1000
CN(C)[C@H](CNC(=O)[C@@H]1C[C@]1(C)c1ccccc1)Cc1ccc2[nH]ncc2c1 [Compound B-19, (1R,2S)—N—((S)-2-(dimethylamino)-3-(1H-indazol-5-yl)propyl)-2-methyl-2-phenylcyclopropane-1-carboxamide] |  |  | > 1000 | < 100 | 
